According to patent publication US5491135A (priority 1993, dated 1996):
Values joined by “and” are separate entries in the source; they are usually repeats but may differ in a detail not shown here. Identical values can stand only once. Like-named read-outs stand apart in the source and are kept apart here.

Tests used:
[1] = system: HCMV strain AD 169; assay: Rabbit HCMV ascending dose efficacy and time course recovery (Example 7); conditions: for Vitreo-retinal score: sum of both eyes
[2] = system: HCMV strain AD169; type: cell-based
[3] = day 4, PALA 50 or DHPG 10 mg/kg/d
[4] = day 5, PALA 75 mg/kg/d, with or without steroid
[5] = day 5, PALA 50 or DHPG 10 mg/kg/d
[6] = day 6, PALA 75 mg/kg/d, with or without steroid
[7] = day 6, PALA 50 or DHPG 10 mg/kg/d
[8] = day 7, PALA 75 mg/kg/d, with or without steroid
[9] = day 12, PALA 75 mg/kg/d, with or without steroid
[10] = day 12, PALA 50 or DHPG 10 mg/kg/d

O=C(O)C[C@H](NC(=O)CP(=O)(O)O)C(=O)O [PALA]
Average HCMV titer ([1]; day 4, PALA 100 mg/kg/d): 10^3 pfu | HCMV Recovered, OD ([1]; day 4, PALA 100 mg/kg/d): + | HCMV Recovered, OS ([1]; day 4, PALA 100 mg/kg/d): + | HCMV Titer, OD ([1]; day 4, PALA 100 mg/kg/d): 10^5 pfu and 10^3 pfu | HCMV Titer, OS ([1]; day 4, PALA 100 mg/kg/d): 10^3 pfu and 10^4 pfu | HCMV recovery frequency ([1]; day 4, PALA 100 mg/kg/d): 3/4 | Optic neuritis score (ONH) ([1]; day 4, PALA 100 mg/kg/d): 6.0 and 5.0 | Vitreo-retinal score ([1]; day 4, PALA 100 mg/kg/d): 4.5 and 3.75 | HCMV Recovered, OD [1, 3]: - and + | HCMV Recovered, OS [1, 3]: - | HCMV Titer, OD [1, 3]: 10^4 pfu | HCMV recovery frequency [1, 3]: 1/4 | Optic neuritis score (ONH) [1, 3]: 2.0 and 3.0 | Average HCMV titer [1, 4]: 10^2 pfu | HCMV Recovered, OD [1, 4]: - | HCMV Recovered, OS [1, 4]: - and + | HCMV Titer, OS [1, 4]: 10^2 pfu | HCMV recovery frequency [1, 4]: 1/4 | Optic neuritis score (ONH) [1, 4]: 3.0 and 5.0 | Vitreo-retinal score [1, 4]: 1.75 and 3.5 | Average HCMV titer ([1]; day 5, PALA 100 mg/kg/d): 10^2 pfu | HCMV Recovered, OD ([1]; day 5, PALA 100 mg/kg/d): - | HCMV Recovered, OS ([1]; day 5, PALA 100 mg/kg/d): + and - | HCMV Titer, OS ([1]; day 5, PALA 100 mg/kg/d): 10^2 pfu | HCMV recovery frequency ([1]; day 5, PALA 100 mg/kg/d): 1/4 | HCMV titer ([1]; day 5, PALA 100 mg/kg/d): 10^2 pfu/ml | Optic neuritis score (ONH) ([1]; day 5, PALA 100 mg/kg/d): 5.0 and 4.0 | Vitreo-retinal score ([1]; day 5, PALA 100 mg/kg/d): 3.5 and 3.0 | Average HCMV titer [1, 5]: 10^1 pfu | HCMV Recovered, OD [1, 5]: - and + | HCMV Recovered, OS [1, 5]: + and - | HCMV Titer, OD [1, 5]: 10^2 pfu | HCMV Titer, OS [1, 5]: 10^2 pfu | HCMV recovery frequency [1, 5]: 2/4 | Optic neuritis score (ONH) [1, 5]: 1.0 | Vitreo-retinal score [1, 5]: 0.65 and 1.25 | HCMV Titer, OS ([1]; day 6, PALA 50 mg/kg/d): 10^3 pfu and 10^2 pfu | HCMV titer ([1]; day 6, PALA 50 mg/kg/d): 10^2 pfu/ml | HCMV Recovered, OD [1, 6]: + and - | HCMV Recovered, OS [1, 6]: + and - | HCMV Titer, OD [1, 6]: 10^3 pfu | HCMV Titer, OS [1, 6]: 10^4 pfu | HCMV recovery frequency [1, 6]: 3/4 and 2/4 | Optic neuritis score (ONH) [1, 6]: 2.0 | HCMV Recovered, OD ([1]; day 6, PALA 100 mg/kg/d): + | HCMV Recovered, OS ([1]; day 6, PALA 100 mg/kg/d): - and + | HCMV Titer, OD ([1]; day 6, PALA 100 mg/kg/d): 10^2 pfu | HCMV Titer, OS ([1]; day 6, PALA 100 mg/kg/d): 10^3 pfu | HCMV recovery frequency ([1]; day 6, PALA 100 mg/kg/d): 3/4 | Optic neuritis score (ONH) ([1]; day 6, PALA 100 mg/kg/d): 4.0 | Vitreo-retinal score ([1]; day 6, PALA 100 mg/kg/d): 4.0 | Average HCMV titer [1, 7]: 10^2 pfu | HCMV Recovered, OD [1, 7]: + | HCMV Recovered, OS [1, 7]: + | HCMV Titer, OD [1, 7]: 10^2 pfu | HCMV recovery frequency [1, 7]: 4/4 | Optic neuritis score (ONH) [1, 7]: 1.0 and 0.5 | Vitreo-retinal score [1, 7]: 0.75 and 0.6 | Optic neuritis score (ONH) [1, 8]: 0 | Vitreo-retinal score [1, 8]: 5.0 | Optic neuritis score (ONH) ([1]; day 7, PALA 100 mg/kg/d): 2.5 and 4.0 | Vitreo-retinal score ([1]; day 7, PALA 100 mg/kg/d): 3.25 and 4.25 | Vitreo-retinal score ([1]; day 7, PALA 50 or DHPG 10 mg/kg/d): 0.4 | HCMV Recovered, OD [1, 9]: - | HCMV Recovered, OS [1, 9]: - | HCMV Recovered, OD ([1]; day 12, PALA 100 mg/kg/d): - | HCMV Recovered, OS ([1]; day 12, PALA 100 mg/kg/d): - | HCMV Recovered, OD [1, 10]: - | HCMV Recovered, OS [1, 10]: - | log reduction at 10 µg/mL ([2]; Human betaherpesvirus 5, AD169, Hs68, read-out: viral yield reduction): 2 to 3 | reduction of HCMV titer ([2]; PALA 3 μg/ml, DHPG 19 μg/ml): effective in reducing HCMV titers | Cell associated HCMV titer ([2]; day 0 PI): 10^2 PFU/ml | Cell free (supernatant) HCMV titer ([2]; day 0 PI): 10^5 PFU/ml | Cell associated HCMV titer ([2]; day 1 PI): 10^3 PFU/ml | Cell free (supernatant) HCMV titer ([2]; day 1 PI): 10^1 PFU/ml | Cell associated HCMV titer ([2]; day 2 PI): 10^1 PFU/ml | Cell free (supernatant) HCMV titer ([2]; day 2 PI): 10^1 PFU/ml | Cell associated HCMV titer ([2]; day 3 PI): 10^1 PFU/ml | Cell free (supernatant) HCMV titer ([2]; day 3 PI): 10^3 PFU/ml | Cell associated HCMV titer ([2]; day 4 PI): 10^1 PFU/ml | Cell free (supernatant) HCMV titer ([2]; day 4 PI): 10^2 PFU/ml | Cell associated HCMV titer ([2]; day 5 PI): 10^1 PFU/ml | Cell free (supernatant) HCMV titer ([2]; day 5 PI): 10^1 PFU/ml | Cell associated HCMV titer ([2]; day 6 PI): 10^1 PFU/ml | Cell associated HCMV titer ([2]; day 7 PI): 0 PFU/ml
